Among the data in US9458153B2, “Dihydroquinolizinones for the treatment and prophylaxis of hepatitis B virus infection” (Hoffmann-La Roche Inc., priority 2014, dated 2016) are IC50 values, retold here.

pIC50: −log10 of the molar value. Structures can show the parent of a compound that is named as a salt.

The first assay concerns HBsAg. The assay can be described thus: HBsAg assay (chemiluminescence immunoassay of secreted HBsAg in HepG2.2.15 culture supernatant). The format is cell-based, HBV. The conditions noted are these: HBsAg secretion reduced by 50% vs no drug control; HepG2.2.15 cells; CLIA kit. As to the method: HepG2.2.15 cells (Acs et al. Proc Natl Acad Sci USA, 84, (1987), 4641-4), a constitutively HBV-expressing cell line were cultured in DMEM+Glutamax-I medium (Invitrogen, Carlsbad, Calif., USA), supplemented with 10% fetal bovine serum (Invitrogen) and G418 (Invitrogen) at a final concentration of 200 mg/L and maintained in 5% CO2 at 37° C.
HepG2.2.15 cells were seeded in duplicate into white, 96-well plates at 1.5×10^4 cells/well. The cells were treated with a three-fold serial dilution series of the compounds in DMSO. The final DMSO concentration in all wells was 1% and DMSO was used as no drug control.
The HBsAg chemiluminescence immunoassay (CLIA) kit (Autobio Diagnostics Co., Zhengzhou, China, Catalog number: CL0310-2) was used to measure the levels of secreted HBV antigens semi-quantitatively. For the detection 50 μL/well culture supernatant was used and HBsAg was quantified using HBsAg chemiluminescence immunoassay (CLIA) kit (Autobio Diagnostics Co., Zhengzhou, China, Catalog number: CL0310-2), 50 μL of the supernatant was transferred to the CLIA assay plate and 50 μL of enzyme conjugate reagent was added into each well. The plates were sealed and gently agitated for 1 hour at room temperature. The supernatant-enzyme-mixture was discarded and wells were washed 6 times with 300 μL of PBS. The residual liquid was removed by plating the CLIA plate right side down on absorbent tissue paper. 25 μL of substrates A and B were added to each well. Luminance was measured using a luminometer (Mithras LB 940 Multimode Microplate Reader) after 10 minutes incubation. Dose-response curves were generated and the IC50 value was extrapolated by using the E-WorkBook Suite (ID Business Solutions Ltd., Guildford, UK).
The compounds of the present invention were tested for their capacity to inhibit HBsAg as described herein.
In turn, `COc1cc2c(cc1OC)-c1cc(=O)c(C(=O)O)cn1C(C)C2` (single isomer, unassigned; (-)) [Example 68, (−)-9,10-dimethoxy-6-methyl-2-oxo-6,7-dihydrobenzo[a]quinolizine-3-carboxylic acid] gave a pIC50 of 5.25.
The compound `CCCOc1cc2c(cc1OC)-c1cc(=O)c(C(=O)O)cn1C(CC)C2` (single isomer, unassigned; (-)) [Example 80, (−)-6-ethyl-10-methoxy-2-oxo-9-propoxyl-6,7-dihydrobenzo[a]quinolizine-3-carboxylic acid] had a negative logarithm of the IC50 (pIC50) of 6.72.
Consider `CCC1Cc2cc(OC)c(C3CC3)cc2-c2cc(=O)c(C(=O)O)cn21` (single isomer, unassigned; (-)) [Example 91, (−)-10-cyclopropyl-6-ethyl-9-methoxy-2-oxo-6,7-dihydrobenzo[a]quinolizine-3-carboxylic acid], for which the negative logarithm of the IC50 (pIC50) is 6.30.
The same measure, in the same setting: the value for `COc1cc2c(cc1OC)-c1cc(=O)c(C(=O)O)cn1C(C(C)C)C2` (single isomer, unassigned; (-)) [Example 100, (−)-6-isopropyl-9,10-dimethoxy-2-oxo-6,7-dihydrobenzo[a]quinolizine-3-carboxylic acid] was 5.27; that for `COc1cc2c(cc1OC)-c1cc(=O)c(C(=O)O)cn1C(CC(C)C)C2` (single isomer, unassigned; (-)) [Example 103, (−)-6-isobutyl-9,10-dimethoxy-2-oxo-6,7-dihydrobenzo[a]quinolizine-3-carboxylic acid] was 5.47; that for `COCCOc1cc2c(cc1Cl)-c1cc(=O)c(C(=O)O)cn1C(CC(C)C)C2` (single isomer, unassigned; (-)) [Example 106, (−)-10-chloro-6-isobutyl-9-(2-methoxyethoxy)-2-oxo-6,7-dihydrobenzo[a]quinolizine-3-carboxylic acid] was 5.14.
As for `COCCOc1cc2c(cc1Cl)-c1cc(=O)c(C(=O)O)cn1C(C(C)C)C2` (single isomer, unassigned; (-)) [Example 109, (−)-10-chloro-6-isopropyl-9-(2-methoxyethoxy)-2-oxo-6,7-dihydrobenzo[a]quinolizine-3-carboxylic acid], the pIC50 was 7.21.
Same read-out and setting: the figure for `CCC1Cc2cc(OCc3ccccc3)c(C)cc2-c2cc(=O)c(C(=O)O)cn21` (single isomer, unassigned; (-)) [Example 117, (−)-9-benzyloxy-6-ethyl-10-methyl-2-oxo-6,7-dihydrobenzo[a]quinolizine-3-carboxylic acid] is 6.04; for `COCCCOc1cc2c(cc1Cl)-c1cc(=O)c(C(=O)O)cn1C(C(C)C)C2` (single isomer, unassigned; (-)) [Example 122, (−)-10-chloro-6-isopropyl-9-(3-methoxypropoxy)-2-oxo-6,7-dihydrobenzo[a]quinolizine-3-carboxylic acid] it is 6.16; for `COc1cc2c(cc1OCC(F)(F)F)CC(C(C)C)n1cc(C(=O)O)c(=O)cc1-2` (single isomer, unassigned; (-)) [Example 128, (−)-6-isopropyl-10-methoxy-2-oxo-9-(2,2,2-trifluoroethoxy)-6,7-dihydrobenzo[a]quinolizine-3-carboxylic acid] it is 6.17.
Consider `COCCOc1cc2c(cc1OC)-c1cc(=O)c(C(=O)O)cn1C(C(C)C)C2` (single isomer, unassigned; (-)) [Example 130, (−)-6-isopropyl-10-methoxy-9-(2-methoxyethoxy)-2-oxo-6,7-dihydrobenzo[a]quinolizine-3-carboxylic acid], for which the negative logarithm of the IC50 (pIC50) was 5.81.
The same measure, in the same setting: the figure for `COCCCOc1cc2c(cc1OC)-c1cc(=O)c(C(=O)O)cn1C(C(C)(C)C)C2` (single isomer, unassigned; (-)) [Example 133, (−)-6-tert-butyl-10-methoxy-9-(3-methoxypropoxy)-2-oxo-6,7-dihydrobenzo[a]quinolizine-3-carboxylic acid] is 6.48.
Still for that read-out and setting: the figure for `COCCOc1cc2c(cc1OC)-c1cc(=O)c(C(=O)O)cn1C(C1(C)CC1)C2` (single isomer, unassigned; (-)) [Example 136, (−)-10-methoxy-9-(2-methoxyethoxy)-6-(1-methylcyclopropyl)-2-oxo-6,7-dihydrobenzo[a]quinolizine-3-carboxylic acid] is 6.40.
The same measure, in the same setting: the value for `COCCCOc1cc2c(c(Cl)c1F)-c1cc(=O)c(C(=O)O)cn1C(C(C)C)C2` (single isomer, unassigned; (-)) [Example 139, (−)-11-chloro-10-fluoro-6-isopropyl-9-(3-methoxypropoxy)-2-oxo-6,7-dihydrobenzo[a]quinolizine-3-carboxylic acid] was 6.89.
`COc1cc2c(cc1OCC(F)F)CC(C(C)C)n1cc(C(=O)O)c(=O)cc1-2` (single isomer, unassigned; (-)) [Example 143, (−)-9-(2,2-difluoroethoxy)-6-isopropyl-10-methoxy-2-oxo-6,7-dihydrobenzo[a]quinolizine-3-carboxylic acid] had a negative-log IC50 (pIC50) of 6.72. This pIC50 and that of the compound before are within 0.2 log units of each other.
The same measure, in the same setting: the figure for `COc1cc2c(cc1OCC(C)(C)CO)CC(C(C)C)n1cc(C(=O)O)c(=O)cc1-2` (single isomer, unassigned; (-)) [Example 146, (−)-9-(3-hydroxy-2,2-dimethyl-propoxy)-6-isopropyl-10-methoxy-2-oxo-6,7-dihydrobenzo[a]quinolizine-3-carboxylic acid] is 6.28; for `COc1cc2c(cc1OCC(C)(C)CO)CC(C(C)(C)C)n1cc(C(=O)O)c(=O)cc1-2` (single isomer, unassigned; (-)) [Example 151, (−)-6-tert-butyl-9-(3-hydroxy-2,2-dimethyl-propoxy)-10-methoxy-2-oxo-6,7-dihydrobenzo[a]quinolizine-3-carboxylic acid] it is 6.80.
The same measure, in the same setting: the value for `COc1cc2c(cc1OCCCCCO)CC(C(C)(C)C)n1cc(C(=O)O)c(=O)cc1-2` (single isomer, unassigned; (-)) [Example 154, (−)-6-tert-butyl-9-(5-hydroxypentoxy)-10-methoxy-2-oxo-6,7-dihydrobenzo[a]quinolizine-3-carboxylic acid] was 6.92; that for `COc1cc2c(cc1OCCCCCCO)CC(C(C)(C)C)n1cc(C(=O)O)c(=O)cc1-2` (single isomer, unassigned; (-)) [Example 157, (−)-6-tert-butyl-9-(6-hydroxyhexoxy)-10-methoxy-2-oxo-6,7-dihydrobenzo[a]quinolizine-3-carboxylic acid] was 6.77; that for `COc1cc2c(cc1OCCCCCCNC(=O)OC(C)(C)C)CC(C(C)(C)C)n1cc(C(=O)O)c(=O)cc1-2` (single isomer, unassigned; (-)) [Example 163, (−)-9-[6-(tert-butoxycarbonylamino)hexoxy]-6-tert-butyl-10-methoxy-2-oxo-6,7-dihydrobenzo[a]quinolizine-3-carboxylic acid] was 6.46.

The same assay, now with this note: HBsAg secretion reduced by 50% vs no drug control; HepG2.2.15 cells; CLIA kit; hydrochloride.
The compound `COc1cc2c(cc1OCCCCCCN)CC(C(C)(C)C)n1cc(C(=O)O)c(=O)cc1-2` (single isomer, unassigned; (-)) [Example 165, (−)-9-(6-aminohexoxy)-6-tert-butyl-10-methoxy-2-oxo-6,7-dihydrobenzo[a]quinolizine-3-carboxylic acid hydrochloride] showed a pIC50 of 5.81.
